Experiments:
[1] = test system: conversion of squalene oxide to lanosterol; experiment: Cholesterol synthesis in TMD-treated macrophages; format: cell-based; conditions: 12 ug/ml TMD, RAW 264.7 macrophages
[2] = test system: Salmonella; experiment: Intracellular growth of Salmonella in RAW 264.7 macrophages (colony forming units); format: cell-based, S. typhimurium
Experimental: RAW 264.7 macrophages were plated in triplicate at a density of 5×10^5 cells/well, and incubated for 6 hours prior to infection with various treatments (DMEM-FBS, DMEM-LPDS, DMEM-D-FBS+30 uM Mevinolin, or DMEM-FBS+30 uM Mevinolin, or DMEM-FBS+30 uM Mevinolin+150 uM mevalonate). Cells were infected at a multiplicity of infection of 10 bacteria per cell for 15 minutes at 37° C. After infection, monolayers were incubated in media containing 100 ug/ml gentamicin to kill extracellular bacteria and then maintained in media containing 10 ug/ml for the remainder of the experiment. At 20 hours post infection, the cells were washed three times in PBS, lysed in 1% Triton X-100 and then plated to determine colony forming units.
RAW 264.7 macrophages were plated in triplicate at a density of 4×10^5 cells/well, and infected with bacteria at a multiplicity of infection of 10 bacteria per cell for 15 minutes at 37° C.
After infection, the 12 ug/ml of 4,4,10-β trimethyl-trans-decal-3β-ol (TMD) inhibitor was added to the media which also contained 100 ug/ml gentamicin. At 2 hours post infection, the gentamicin concentration was lowered to 10 ug/ml and maintained for the remainder of the experiment. At 20 hours post infection, cells were lysed with 1% Triton X-100 and bacteria were plated for colony forming units.
Macrophages were treated with 50 nM mevinolin for 3 days prior to infection. Cells were infected as described above, lysed with Triton X-100 at 2 and 20 hours post infection, and then plated to determine colony forming units.

[3] = test system: RAW264.7 macrophages infected with S. typhimurium (SL1344); experiment: TUNEL staining of Salmonella-infected macrophages (apoptosis); format: cell-based; conditions: 30 μM mevinolin from 4 hours prior to infection, 13 hours post infection
Experimental: RAW264.7 macrophages were treated with 30 uM mevinolin starting at 4 hours prior to infection. Infections were done with S. typhimurium (SL1344) at a moi of 10 bacteria per cell. At 13 hours post infection, cells were fixed and processed for TUNEL staining. At least 100 infected and 100 uninfected cells were counted in each monolayer and scored for TUNEL staining. Uninfected cells (black) and infected cells (gray) are shown. Averages of duplicate samples are shown.

[4] = test system: Legionella; format: cell-based
[5] = test system: RAW 264.7 macrophages; experiment: Host cell viability (Alamar Blue reduction); format: cell-based; conditions: 10 nM to 100 uM mevinolin with or without mevalonate, 24 hours, Alamar Blue 3 hours
Experimental: RAW 264.7 macrophages were plated at a density of 1×10^5 cells/well and each sample represents the mean of six wells. Cells were treated with concentrations of mevinolin at 10 nM (1), 100 nM (2), 500 nM (3), 1 uM (4), 10 uM (5), 50 uM (6), 100 uM (7), 50 uM mevinolin+50 uM mevalonate (8), 50 uM mevinolin+150 uM mevalonate (9), 100 uM mevinolin+50 uM mevalonate (10), and 100 uM mevinolin+150 uM mevalonate (11), for 24 hours at 37° C. and then incubated with Alamar Blue for 3 hours.

[6] = test system: Salmonella; experiment: Extracellular growth of Salmonella in Luria broth (optical density); format: cell-based; conditions: LB containing 30 uM mevinolin, 37° C., optical density at 23 hours and growth curve
Experimental: Triplicate cultures of Salmonella were grown in a shaking incubator at 37° C. in plain LB, or LB containing 30 uM Mevinolin, and optical density was recorded at 23 hours after inoculation (results shown in FIG. 4A). Triplicate cultures of Salmonella were grown in a shaking incubator at 37° C. in plain LB or in LB containing 30 uM Mevinolin and optical density measurements were used to construct a growth curve (results shown in FIG. 4B).

Compound	cholesterol synthesis of treated cells [1]	intracellular survival of Salmonella ([2]; 12 ug/ml TMD added after infection, RAW 264.7 macrophages, CFU at 20 hours post infection)	apoptosis in Salmonella-infected macrophages (TUNEL staining) [3]	intracellular growth of Legionella in human macrophages [4]	reversal of the defect in Legionella intracellular growth by mevalonate [4]	host cell viability [5]	intracellular growth of Salmonella at physiologically relevant concentration ([2]; 50 nM mevinolin for 3 days prior to infection, CFU at 2 and 20 hours post infection)	reversal of the defect in Salmonella intracellular growth by mevalonate ([2]; 30 uM mevinolin + 150 uM mevalonate, RAW 264.7 macrophages)	Salmonella's intracellular survival ([2]; RAW 264.7 macrophages, 30 uM mevinolin from 6 hours prior to infection, CFU at 20 hours post infection)	bacterial growth in liquid culture (extracellular growth of Salmonella) [6]
CC1(C)[C@@H](O)CC[C@]2(C)CCCC[C@@H]12 (relative stereo) [TMD, 4,4,10-β trimethyl-trans-decal-3β-ol]	accumulated intermediate precursors and made very little cholesterol	did not lead to a decrease in intracellular survival of Salmonella								
CC[C@H](C)C(=O)O[C@H]1C[C@@H](C)C=C2C=C[C@H](C)[C@H](CC[C@@H]3C[C@@H](O)CC(=O)O3)[C@H]21 [mevinolin]			induces apoptosis in Salmonella-infected macrophages	inhibited intracellular growth of Legionella in human macrophages	could be reversed by the addition of mevalonate	host cell viability is not affected	inhibit the intracellular growth of Salmonella	can be reversed by the addition of mevalonate	decreased Salmonella's intracellular survival by a factor of ten	does not affect bacterial growth in liquid culture

Source: patent US20030087430A1 (priority 2001, published 2003)
